One molecule from PMC11291634 (Scientific Reports, 2024) can be followed below.

The test addresses carboxylesterase Ha006a. Kind of test: ITC with purified protein, one-site model, […] °C. It counts as binding, Helicoverpa armigera.

Each structure is given as a SMILES string.

`CCNc1nc(Cl)nc(NC(C)C)n1` [ATZ, atrazine] showed a dissociation constant Kd of 57 µM.

As a reminder, the Kd is the constant that tells how readily two partners part at equilibrium. A high value points to weaker binding.
